Test results: ChEMBL document CHEMBL1909046, “DrugMatrix in vitro pharmacology data”

Legend:
[1] = DRUGMATRIX: beta-Lactamase enzyme inhibition (substrate: Nitrocefin); set-up: species or system Bacillus cereus; conditions: Not Active = under 50% inhibition at 10 µM
[2] = biological target: T1, 5-hydroxytryptamine receptor 1A (Rattus norvegicus, UniProt P19327); format: cell membranes, Membrane; conditions: cho-k1; further: in other assays of this panel Not Active means under 50% inhibition at 10 µM
T1 sequence (P19327 whole entry): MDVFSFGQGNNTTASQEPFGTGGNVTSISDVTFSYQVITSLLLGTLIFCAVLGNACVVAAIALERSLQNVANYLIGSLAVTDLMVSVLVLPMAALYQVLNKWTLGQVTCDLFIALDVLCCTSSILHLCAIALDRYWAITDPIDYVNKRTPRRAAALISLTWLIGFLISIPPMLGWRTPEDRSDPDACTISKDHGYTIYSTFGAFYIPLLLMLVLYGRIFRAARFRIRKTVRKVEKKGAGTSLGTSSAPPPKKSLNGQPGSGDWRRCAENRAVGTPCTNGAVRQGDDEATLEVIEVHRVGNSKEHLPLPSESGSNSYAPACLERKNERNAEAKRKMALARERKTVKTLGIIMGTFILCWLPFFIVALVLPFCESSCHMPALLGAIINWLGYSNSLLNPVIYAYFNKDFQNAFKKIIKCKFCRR

Adenosine receptor A3 = biological target: T2, Adenosine receptor A3 (Homo sapiens, UniProt P0DMS8); format: cell membranes, CHO-K1, Membrane;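 further: radioligand binding assay with AB-MECA serving as the labeled ligand; in other assays of this panel Not Active means under 50% inhibition at 10 µM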
T2 sequence (P0DMS8 whole entry): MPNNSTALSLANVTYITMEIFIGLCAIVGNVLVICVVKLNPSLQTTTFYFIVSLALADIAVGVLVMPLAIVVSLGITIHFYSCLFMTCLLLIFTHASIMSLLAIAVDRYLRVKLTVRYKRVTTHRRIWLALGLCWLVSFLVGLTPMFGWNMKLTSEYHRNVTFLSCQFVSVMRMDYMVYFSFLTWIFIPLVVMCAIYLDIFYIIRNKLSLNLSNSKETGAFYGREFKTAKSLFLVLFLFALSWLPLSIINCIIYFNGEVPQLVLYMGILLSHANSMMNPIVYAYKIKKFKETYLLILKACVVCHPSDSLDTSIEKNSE

[3] = biological target: T3, Angiotensin-converting enzyme (Oryctolagus cuniculus, UniProt P12822); format: tissue-based, Lung;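 further: enzymatic inhibition of angiotensin-converting enzyme measured with FAPGG as the substrate; in other assays of this panel Not Active means under 50% inhibition at 10 µM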
T3 sequence (P12822 whole entry): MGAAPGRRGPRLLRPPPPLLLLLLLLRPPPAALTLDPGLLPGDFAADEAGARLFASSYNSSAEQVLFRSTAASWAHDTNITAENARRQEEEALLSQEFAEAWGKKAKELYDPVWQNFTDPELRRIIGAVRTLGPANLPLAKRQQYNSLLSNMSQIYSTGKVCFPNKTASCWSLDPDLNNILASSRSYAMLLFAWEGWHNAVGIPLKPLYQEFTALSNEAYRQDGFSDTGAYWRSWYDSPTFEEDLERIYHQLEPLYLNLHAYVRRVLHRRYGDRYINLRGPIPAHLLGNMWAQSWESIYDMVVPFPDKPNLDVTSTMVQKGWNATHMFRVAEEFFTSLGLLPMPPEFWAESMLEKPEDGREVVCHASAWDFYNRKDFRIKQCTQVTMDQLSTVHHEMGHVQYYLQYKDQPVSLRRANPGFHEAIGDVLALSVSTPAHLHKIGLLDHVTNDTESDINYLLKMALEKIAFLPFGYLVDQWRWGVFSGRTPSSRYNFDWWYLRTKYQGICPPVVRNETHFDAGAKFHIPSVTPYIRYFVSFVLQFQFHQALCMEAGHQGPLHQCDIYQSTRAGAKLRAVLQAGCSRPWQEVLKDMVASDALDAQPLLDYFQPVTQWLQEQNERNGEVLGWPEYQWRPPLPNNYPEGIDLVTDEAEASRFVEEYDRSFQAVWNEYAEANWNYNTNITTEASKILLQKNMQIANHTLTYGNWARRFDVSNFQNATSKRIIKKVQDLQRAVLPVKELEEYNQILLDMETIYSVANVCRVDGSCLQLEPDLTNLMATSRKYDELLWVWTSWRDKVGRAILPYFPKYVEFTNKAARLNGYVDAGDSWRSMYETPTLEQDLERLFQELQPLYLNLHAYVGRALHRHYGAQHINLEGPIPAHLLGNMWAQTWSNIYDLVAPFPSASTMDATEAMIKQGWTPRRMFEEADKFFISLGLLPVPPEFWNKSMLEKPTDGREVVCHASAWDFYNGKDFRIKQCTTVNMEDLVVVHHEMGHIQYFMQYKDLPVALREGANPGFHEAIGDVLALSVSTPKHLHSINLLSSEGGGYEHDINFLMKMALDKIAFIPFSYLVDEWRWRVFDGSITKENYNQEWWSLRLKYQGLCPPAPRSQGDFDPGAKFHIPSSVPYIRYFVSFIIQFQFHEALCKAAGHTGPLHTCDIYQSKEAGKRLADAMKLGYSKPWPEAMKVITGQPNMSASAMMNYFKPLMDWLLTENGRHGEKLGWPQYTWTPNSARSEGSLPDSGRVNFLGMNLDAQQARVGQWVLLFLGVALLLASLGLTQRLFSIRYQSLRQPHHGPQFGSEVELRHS

[4] = biological target: Matrix metalloproteinase-9 (Homo sapiens, UniProt P14780); assay: biochemical; format: cell-based;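 further: inhibition of isolated MMP-9 enzyme activity toward a synthetic peptide substrate, from the DrugMatrix protease screening panel; in other assays of this panel Not Active means under 50% inhibition at 10 µM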
Glycine receptor = Glycine receptor (Rattus norvegicus, UniProt P22771+P24524+P07727+P20781); format: cell membranes, Wistar, Spinal cord, Membrane; further: in other assays of this panel Not Active means under 50% inhibition at 10 µM
Leukotriene C4 synthase = biological target: T4, Leukotriene C4 synthase (Cavia porcellus, UniProt A6XA80); format: tissue-based, Lung
T4 sequence (A6XA80 whole entry): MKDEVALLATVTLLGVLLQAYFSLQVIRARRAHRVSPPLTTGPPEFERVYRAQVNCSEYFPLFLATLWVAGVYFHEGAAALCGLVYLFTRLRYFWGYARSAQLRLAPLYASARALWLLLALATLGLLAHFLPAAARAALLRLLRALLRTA

Sequence of Matrix metalloproteinase-9 (P14780 whole entry): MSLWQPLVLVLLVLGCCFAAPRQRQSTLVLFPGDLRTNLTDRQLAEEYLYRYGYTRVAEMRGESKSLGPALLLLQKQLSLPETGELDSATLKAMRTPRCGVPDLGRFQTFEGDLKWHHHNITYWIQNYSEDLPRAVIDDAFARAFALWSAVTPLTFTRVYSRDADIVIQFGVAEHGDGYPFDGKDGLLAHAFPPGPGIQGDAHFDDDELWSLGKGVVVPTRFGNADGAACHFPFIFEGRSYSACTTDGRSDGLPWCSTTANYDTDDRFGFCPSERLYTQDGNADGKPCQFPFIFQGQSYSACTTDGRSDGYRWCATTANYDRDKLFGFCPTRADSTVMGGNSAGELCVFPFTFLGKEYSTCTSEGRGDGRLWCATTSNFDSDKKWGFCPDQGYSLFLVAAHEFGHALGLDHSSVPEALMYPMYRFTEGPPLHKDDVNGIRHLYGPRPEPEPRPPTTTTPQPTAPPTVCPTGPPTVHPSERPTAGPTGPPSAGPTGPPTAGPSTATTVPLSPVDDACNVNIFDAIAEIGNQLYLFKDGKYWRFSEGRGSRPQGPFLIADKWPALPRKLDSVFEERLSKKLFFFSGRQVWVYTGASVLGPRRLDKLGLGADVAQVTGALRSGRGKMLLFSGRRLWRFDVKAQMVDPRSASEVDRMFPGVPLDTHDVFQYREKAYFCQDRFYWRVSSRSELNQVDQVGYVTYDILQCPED

Row | SMILES | IC50 [1] | Ki [1] | IC50 [2] | IC50 (Adenosine receptor A3; cho-k1) | IC50 [3] | IC50 [4] | IC50 (Glycine receptor) | IC50 (Leukotriene C4 synthase) | IC50 (Adenosine receptor A3; read-out: IC50) [µM] | Ki (Adenosine receptor A3; read-out: Ki) [µM]
1 | CCN[C@@H]1C[C@H](N)[C@@H](O[C@H]2OC(CN)=CC[C@H]2N)[C@H](O)[C@H]1O[C@H]1OC[C@](C)(O)[C@H](NC)[C@H]1O [NETILMICIN] | Not Active | Not Active | Not Active | Not Active | Not Active | Not Active | Not Active | Not Active | – | –
2 | COC(=O)C1=C(C)NC(C)=C(C(=O)OCC(C)C)C1c1ccccc1[N+](=O)[O-] (stereo not drawn) [NISOLDIPINE] | Not Active | Not Active | Not Active | – | Not Active | Not Active | Not Active | Not Active | 7.12 | 4.02
3 | CCOC(=O)C1=C(C)NC(C)=C(C(=O)OC)C1c1cccc([N+](=O)[O-])c1 (stereo not drawn) [NITRENDIPINE] | Not Active | Not Active | Not Active | Not Active | Not Active | Not Active | Not Active | Not Active | – | –
4 | C#C[C@]1(OC(C)=O)CC[C@H]2[C@@H]3CCC4=CC(=O)CC[C@@H]4[C@H]3CC[C@@]21C [NORETHINDRONE ACETATE] | Not Active | Not Active | Not Active | Not Active | Not Active | Not Active | Not Active | Not Active | – | –
5 | COc1ccc2[nH]c([S+]([O-])Cc3ncc(C)c(OC)c3C)nc2c1 (stereo not drawn) [OMEPRAZOLE] | Not Active | Not Active | Not Active | Not Active | Not Active | Not Active | Not Active | Not Active | – | –
6 | Cc1nccn1CC1CCc2c(c3ccccc3n2C)C1=O (stereo not drawn) [ONDANSETRON] | Not Active | Not Active | Not Active | Not Active | Not Active | Not Active | Not Active | Not Active | – | –
7 | CCn1cc(C(=O)O)c(=O)c2cc(F)c(N3CCN(C)CC3)cc21 [PEFLOXACIN] | Not Active | Not Active | Not Active | Not Active | Not Active | Not Active | Not Active | Not Active | – | –
8 | CCCCOc1ccc(OCCCN2CCOCC2)cc1 [PRAMOXINE] | Not Active | Not Active | Not Active | Not Active | Not Active | Not Active | Not Active | Not Active | – | –
9 | O=C(C1CCCCC1)N1CC(=O)N2CCc3ccccc3C2C1 (stereo not drawn) [PRAZIQUANTEL] | Not Active | Not Active | Not Active | Not Active | Not Active | Not Active | Not Active | Not Active | – | –
10 | CCN(CC)CCOC(=O)c1ccc(N)cc1 [PROCAINE] | Not Active | Not Active | Not Active | Not Active | Not Active | Not Active | Not Active | Not Active | – | –
11 | CCCN(CCC)C(=O)C(CCC(=O)O)NC(=O)c1ccccc1 (stereo not drawn) [PROGLUMIDE] | Not Active | Not Active | Not Active | Not Active | Not Active | Not Active | Not Active | Not Active | – | –
12 | NC(=O)c1cnccn1 [PYRAZINAMIDE] | Not Active | Not Active | Not Active | Not Active | Not Active | Not Active | Not Active | Not Active | – | –
13 | OC(CCN1CCCCC1)(c1ccccc1)C1CCCCC1 (stereo not drawn) [TRIHEXYPHENIDYL] | Not Active | Not Active | Not Active | Not Active | Not Active | Not Active | Not Active | Not Active | – | –
14 | Cc1cc2cc3c(C)cc(=O)oc3c(C)c2o1 [TRIOXSALEN] | Not Active | Not Active | Not Active | Not Active | Not Active | Not Active | Not Active | Not Active | – | –
